Earlier results as cited in patent EP2397122A2, “Formulations of neramexane dosage forms” (Merz Pharma GmbH & Co. KGaA, priority 2004, dated 2006).

SMILES: CC12CC3CC(C)(C1)CC(N)(C3)C2 [memantine, 1-amino-3,5-dimethyladamantane]
- elimination half-life (T½) (man): 60 to 80 h
- absolute bioavailability (oral administration in man): approximately 100%
